Measurements from patent US20260373165A1, “PHARMACEUTICAL COMBINATIONS AND COMPOSITIONS, AND METHODS OF USE THEREOF” (SHENZHEN HIGHTIDE BIOPHARMACEUTICAL LTD., priority 2022, published 2026).
“Also recorded” adds a separate entry of the source.

Key:
Format in all cases: in vivo, mouse (C57BL/6J male, 60% HFD DIO)
[1] = Example 2: body weight and body weight change rate, combined administration of HTD1801 and dapagliflozin or empagliflozin in DIO obesity model; conditions: HTD1801 250 mpk, dapagliflozin 10 mpk, empagliflozin 15 mpk p.o. QD, semaglutide 10 nmol/kg s.c. Q3D
Text: (§1) After 5-6-week-old C57BL/6J male mice were acclimatized for 1 week, the weight of each mouse was weighed, and the mice were randomly divided into a control group and a model group by taking the weight as a main index, where 12 mice in the control group were fed with common feed (CD), and the mice in the remaining model group were fed with 60% high-fat feed (60% HFD) for 10-12 weeks to construct a DIO obesity model, with the average body weight being not less than 40 g. The mice fed with 60% HFD were grabbed and acclimatized with a solvent for 3 days, where the acclimatization with a solvent was performed by oral gavage of 0.5% CMC-Na, once daily.
(§2) The food intake, the body weight, the body fat ratio, and the insulin level of the mice were respectively measured, followed by fasting blood glucose level, and the mice were randomly grouped according to Table 12 by taking the body weight as an index, and the remaining ungrouped mice were euthanized. After grouping, each group of mice was administered according to Table 12, the day of administration was defined as DO, and the administration volume of each drug was determined based on the results obtained by the calculation of 5 μL/g× mouse body weight (g).
(§3) For the combined administration group, the administration sequence and the administration time were kept consistent at each administration. The mice were continuously fed with high-fat feed during the administration period until the administration was finished. During administration, 1 food intake was measured per week (difference in feed weights at an interval of 24 h was measured); each group of mice was weighed once daily; blood was collected from the tail tip on day 16 and day 30, respectively, so as to measure fasting blood glucose levels once (blood was collected after fasting from 9:00 am to 3:[…]); on day 24 of administration (D23), the body fat ratio and the lean mass of each group of mice were measured by MRI (the measurement period was kept consistent with that before grouping); after 25 days of administration intervention (day 24), each group of mice was fasted for 6 h and subjected to OGTT (0 min, 15 min, 30 min, 60 min, 90 min, 120 min) to detect their blood glucose levels; after 29 days of administration intervention (day 28), each group of mice was fasted for 6 h and subjected to OGTT (0 min, 15 min, 30 min, 60 min, 90 min, 120 min), and meanwhile subjected to blood sampling via submaxillary vein (0 min, 15 min, 30 min, about 30 μL of blood sampled each time), and then the blood plasma was separated for detecting the insulin level by ELISA, where the separated blood plasma was more than 10 μL; the next day (D30) at the end of administration was set as the test endpoint, and the mice were fasted for 6 h in the morning and subjected to fasting blood glucose level measurement; subsequently, the mice were euthanized with CO2, blood was collected from the heart of each mouse for analysis, and each group of mice was dissected; the liver and subcutaneous, epididymal and mesenteric fat was collected, photographed and weighed, respectively.

[2] = Example 2: body fat mass by MRI on day 23
Text: as §1, §2, §3
The body weight, the body fat mass and the body fat ratio of each animal in groups G1 to G8 were measured on day 23 and averaged for each group, and the results are shown in Table 15 below, and FIGS. 21 and 22.

[3] = Example 2: lean mass by MRI on day 23
Text: as §1, §2, §3
The body weight, the lean mass and the lean ratio of each animal in groups G1 to G8 were measured on day 23 and averaged for each group, and the results are shown in Table 16 below, and FIGS. 23 and 24.

[4] = mean, day 23, HTD1801 250 mpk, dapagliflozin 10 mpk, empagliflozin 15 mpk p.o. QD

OC[C@H]1O[C@@H](c2ccc(Cl)c(Cc3ccc(O[C@H]4CCOC4)cc3)c2)[C@H](O)[C@@H](O)[C@@H]1O [Empagliflozin, empagliflozin]
body weight change / weight loss effect (in words) [1]: basically kept unchanged; also recorded: could not achieve the weight loss effect | Body weight (mean) ([1]; day 0 (baseline)): 46.2 g | Body weight change rate ([1]; day 0 (baseline)): 0.0% | Body weight (mean) ([1]; day 1): 46.3 g | Body weight change rate ([1]; day 1): 0.4% | Body weight (mean) ([1]; day 2): 46.1 g | Body weight change rate ([1]; day 2): −0.2% | Body weight (mean) ([1]; day 3): 46.0 g | Body weight change rate ([1]; day 3): −0.3% | Body weight (mean) ([1]; day 4): 46.0 g | Body weight change rate ([1]; day 4): −0.5% | Body weight (mean) ([1]; day 5): 45.6 g | Body weight change rate ([1]; day 5): −1.3% | Body weight (mean) ([1]; day 6): 45.8 g | Body weight change rate ([1]; day 6): −0.8% | Body weight (mean) ([1]; day 7): 46.0 g | Body weight change rate ([1]; day 7): −0.4% | Body weight (mean) ([1]; day 8): 45.6 g | Body weight change rate ([1]; day 8): −1.2% | Body weight (mean) ([1]; day 9): 45.5 g | Body weight change rate ([1]; day 9): −1.5% | Body weight (mean) ([1]; day 10): 45.4 g | Body weight change rate ([1]; day 10): −1.7% | Body weight (mean) ([1]; day 11): 45.6 g | Body weight change rate ([1]; day 11): −1.2% | Body weight (mean) ([1]; day 12): 45.5 g | Body weight change rate ([1]; day 12): −1.6% | Body weight (mean) ([1]; day 13): 45.3 g | Body weight change rate ([1]; day 13): −1.9% | Body weight (mean) ([1]; day 14): 45.6 g | Body weight change rate ([1]; day 14): −1.3% | Body weight (mean) ([1]; day 15): 45.6 g | Body weight change rate ([1]; day 15): −1.4% | Body weight (mean) ([1]; day 16): 45.3 g | Body weight change rate ([1]; day 16): −1.9% | Body weight (mean) ([1]; day 17): 45.7 g | Body weight change rate ([1]; day 17): −1.1% | Body weight (mean) ([1]; day 18): 45.7 g | Body weight change rate ([1]; day 18): −1.0% | Body weight (mean) ([1]; day 19): 45.7 g | Body weight change rate ([1]; day 19): −1.2% | Body weight (mean) ([1]; day 20): 45.8 g | Body weight change rate ([1]; day 20): −0.8% | Body weight (mean) ([1]; day 21): 46.0 g | Body weight change rate ([1]; day 21): −0.4% | Body weight (mean) ([1]; day 22): 46.2 g | Body weight change rate ([1]; day 22): −0.1% | Body weight (mean) ([1]; day 23): 46.1 g | Body weight change rate ([1]; day 23): −0.1% | Body weight (mean) ([1]; day 24): 45.7 g | Body weight change rate ([1]; day 24): −1.1% | Body weight (mean) ([1]; day 25): 46.0 g | Body weight change rate ([1]; day 25): −0.4% | Body weight (mean) ([1]; day 26): 46.6 g | Body weight change rate ([1]; day 26): 0.9% | Body weight (mean) ([1]; day 27): 46.5 g | Body weight change rate ([1]; day 27): 0.7% | Body weight (mean) ([1]; day 28): 46.0 g | Body weight change rate ([1]; day 28): −0.4% | Body weight (mean) ([1]; day 29): 46.5 g | Body weight change rate ([1]; day 29): 0.8% | body fat mass and body fat ratio (in words) ([2]; day 23, relative to control group G2): increased | Body weight ([2]; mean, day 23 (Table 15), HTD1801 250 mpk, dapagliflozin 10 mpk, empagliflozin 15 mpk p.o. QD): 46.8 g | Body fat ratio [2, 4]: 49.3% | Fat (body fat mass) [2, 4]: 23.0 g | lean ratio (in words) ([3]; day 23, relative to model control group G2): slightly decreased | Body weight ([3]; mean, day 23 (Table 16), HTD1801 250 mpk, dapagliflozin 10 mpk, empagliflozin 15 mpk p.o. QD): 46.8 g | Lean (lean mass) [3, 4]: 4.2 g | Lean ratio [3, 4]: 9.1%
